Assay results reported in patent US20240217978A1 (CHONG KUN DANG PHARMACEUTICAL CORP., priority 2021, published 2024).

Each compound was assayed against human adenosine A2a receptor (Homo sapiens (Human), UniProt P29274) (assay: A2a receptor binding affinity, [3H]-NECA radioligand binding test). Settings: [3H]-NECA 37 nM; membrane from HEK-293 cells transfected with human adenosine A2a receptor.
Procedure, shortened: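 Membranes from HEK-293 cells expressing human A2a receptor were incubated with [3H]-NECA (final 37 nM) and compound for 1 h at room temperature in 50 mM Tris, 10 mM MgCl2, 1 mM EDTA, pH 7.4. Bound ligand was filtered on PEI-coated plates and counted by scintillation to derive IC50 (μM).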

human adenosine A2a receptor, sequence (P29274 whole entry): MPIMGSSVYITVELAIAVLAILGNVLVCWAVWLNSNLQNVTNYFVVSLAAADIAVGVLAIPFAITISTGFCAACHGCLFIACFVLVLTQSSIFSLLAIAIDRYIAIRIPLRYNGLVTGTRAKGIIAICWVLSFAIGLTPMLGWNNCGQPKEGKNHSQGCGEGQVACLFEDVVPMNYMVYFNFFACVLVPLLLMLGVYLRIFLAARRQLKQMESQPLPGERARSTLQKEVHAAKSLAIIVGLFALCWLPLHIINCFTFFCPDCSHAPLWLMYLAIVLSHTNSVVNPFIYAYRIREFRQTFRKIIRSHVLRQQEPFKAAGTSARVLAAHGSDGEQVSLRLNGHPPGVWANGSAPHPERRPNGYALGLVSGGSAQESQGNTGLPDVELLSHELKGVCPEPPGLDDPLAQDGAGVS

| Structure (SMILES) | IC50 [nM] |
| --- | --- |
| CC[C@H](Nc1nc(N)n2nc(-c3ccco3)nc2n1)C(=O)N1CCN(CC(C)(F)F)CC1 [Example 356, (S)-2-((7-amino-2-(furan-2-yl)-[1,2,4]triazolo[1,5-a][1,3,5]triazin-5-yl)amino)-1-(4-(2,2-difluoropropyl)piperazin-1-yl)butan-1-one] | 10 |
| CCCCN1CCN(C(=O)[C@@H](Nc2nc(N)n3nc(-c4ccco4)nc3n2)C(C)C)CC1 [Example 143, (S)-2-((7-amino-2-(furan-2-yl)-[1,2,4]triazolo[1,5-a][1,3,5]triazin-5-yl)amino)-1-(4-butylpiperazin-1-yl)-3-methylbutan-1-one] | 20 |
| CC[C@H](Nc1nc(N)n2nc(-c3ccco3)nc2n1)C(=O)N1CCN(c2ccc(F)cc2F)CC1 [Example 162, (S)-2-((7-amino-2-(furan-2-yl)-[1,2,4]triazolo[1,5-a][1,3,5]triazin-5-yl)amino)-1-(4-(2,4-difluorophenyl)piperazin-1-yl)butan-1-one] | 8 |
| C[C@H](Nc1nc(N)n2nc(-c3ccco3)nc2n1)C(=O)N1CCN(CC(F)(F)C(F)(F)F)CC1 [Example 319, (S)-2-((7-amino-2-(furan-2-yl)-[1,2,4]triazolo[1,5-a][1,3,5]triazin-5-yl)amino)-1-(4-(2,2,3,3,3-pentafluoropropyl)piperazin-1-yl)propan-1-one] | 15 |
| Nc1nc(N2CCC[C@H]2C(=O)N2CCN(CC(F)(F)C(F)(F)F)CC2)nc2nc(-c3ccco3)nn12 [Example 227, (S)-(1-(7-amino-2-(furan-2-yl)-[1,2,4]triazolo[1,5-a][1,3,5]triazin-5-yl)pyrrolidin-2-yl)(4-(2,2,3,3,3-pentafluoropropyl)piperazin-1-yl)methanone] | 9 |
| CCCCN1CCN(C(=O)[C@@H](Nc2nc(N)n3nc(-c4ccco4)nc3n2)C2CC2)CC1 [Example 176, (S)-2-((7-amino-2-(furan-2-yl)-[1,2,4]triazolo[1,5-a][1,3,5]triazin-5-yl)amino)-1-(4-butylpiperazin-1-yl)-2-cyclopropylethan-1-one] | 16 |
| CC(C)(O)CN1CCN(C(=O)[C@@H]2CCCN2c2nc(N)n3nc(-c4ccco4)nc3n2)CC1 [Example 302, (S)-(1-(7-amino-2-(furan-2-yl)-[1,2,4]triazolo[1,5-a][1,3,5]triazin-5-yl)pyrrolidin-2-yl)(4-(2-hydroxy-2-methylpropyl)piperazin-1-yl)methanone] | 6 |
| Nc1nc(N2CCC[C@@H]2C(=O)N2CCN(CC(F)(F)F)CC2)nc2nc(-c3ccco3)nn12 [Example 94, (R)-(1-(7-amino-2-(furan-2-yl)-[1,2,4]triazolo[1,5-a][1,3,5]triazin-5-yl)pyrrolidin-2-yl)(4-(2,2,2-trifluoroethyl)piperazin-1-yl)methanone] | 4390 |
| C[C@@H]1CN(CC(C)(C)O)CCN1C(=O)[C@@H]1CCCN1c1nc(N)n2nc(-c3ccco3)nc2n1 [Example 373, ((S)-1-(7-amino-2-(furan-2-yl)-[1,2,4]triazolo[1,5-a][1,3,5]triazin-5-yl)pyrrolidin-2-yl)((R)-4-(2-hydroxy-2-methylpropyl)-2-methylpiperazin-1-yl)methanone] | 2 |
| CC(C)(O)C(=O)N1CCN(C(=O)[C@@H]2CCN2c2nc(N)n3nc(-c4ccco4)nc3n2)CC1 [Example 267, (S)-1-(4-(1-(7-amino-2-(furan-2-yl)-[1,2,4]triazolo[1,5-a][1,3,5]triazin-5-yl)azetidine-2-carbonyl)piperazin-1-yl)-2-hydroxy-2-methylpropan-1-one] | 10.8 |
| CC(C)(O)CC(=O)N1CCN(C(=O)[C@@H]2CCCN2c2nc(N)n3nc(-c4ccco4)nc3n2)CC1 [Example 229, 1-(4-((7-amino-2-(furan-2-yl)-[1,2,4]triazolo[1,5-a][1,3,5]triazin-5-yl)-L-prolyl)piperazin-1-yl)-3-hydroxy-3-methylbutan-1-one] | 12 |
| Nc1nc(N2CCC[C@H]2C(=O)N2CCC(C3CCN(CC(F)F)CC3)CC2)cc2nc(-c3ccco3)nn12 [Example 393, (S)-(1-(5-amino-2-(furan-2-yl)-[1,2,4]triazolo[1,5-c]pyrimidin-7-yl)pyrrolidin-2-yl)(1′-(2,2-difluoroethyl)-[4,4′-bipiperidin]-1-yl)methanone] | 13 |
| Cc1cccc(NC(=O)N2CCN(C(=O)[C@@H]3CCCN3c3nc(N)n4nc(-c5ccco5)nc4n3)CC2)c1 [Example 61, 4-((7-amino-2-(furan-2-yl)-[1,2,4]triazolo[1,5-a][1,3,5]triazin-5-yl)-L-prolyl)-N-(m-tolyl)piperazin-1-carboxamide] | 3 |
| COC[C@H](Nc1nc(N)n2nc(-c3ccco3)nc2n1)C(=O)N1CCN(CC(C)(C)O)CC1 [Example 399, (S)-2-((7-amino-2-(furan-2-yl)-[1,2,4]triazolo[1,5-a][1,3,5]triazin-5-yl)amino)-1-(4-(2-hydroxy-2-methylpropyl)piperazin-1-yl)-3-methoxypropan-1-one] | 5 |
| Nc1nc(N2CCC[C@H]2C(=O)N2CC3CCC(C2)N3C(=O)Nc2ccccc2)nc2nc(-c3ccco3)nn12 [Example 179, 3-((7-amino-2-(furan-2-yl)-[1,2,4]triazolo[1,5-a][1,3,5]triazin-5-yl)-L-prolyl)-N-phenyl-3,8-diazabicyclo[3.2.1]octane-8-carboxamide] | 5 |
| Nc1nc(N2CCC[C@@H]2C(=O)N2CCN(C(=O)c3ccccc3)CC2)nc2nc(-c3ccco3)nn12 [Example 98] | 11300 |
| Nc1nc(N2CCC[C@@H]2C(=O)N2CCN(C(=O)Nc3ccccc3)CC2)nc2nc(-c3ccco3)nn12 [Example 100] | 9460 |
| CC(C)(O)CC(=O)N1CCN(C(=O)[C@@H]2CCCN2c2nc(N)c3nc(-c4ccco4)oc3n2)CC1 [Example 263, 1-(4-((7-amino-2-(furan-2-yl)oxazolo[5,4-d]pyrimidin-5-yl)-L-prolyl)piperazin-1-yl)-3-hydroxy-3-methylbutan-1-one] | 25 |
| CC(C)(F)CN1CCN(C(=O)[C@H]2CCCN2c2nc(N)n3nc(-c4ccco4)nc3n2)CC1 [Example 93, (R)-(1-(7-amino-2-(furan-2-yl)-[1,2,4]triazolo[1,5-a][1,3,5]triazin-5-yl)pyrrolidin-2-yl)(4-(2-fluoro-2-methylpropyl)piperazin-1-yl)methanone] | 3790 |
| CCOC[C@H](Nc1nc(N)n2nc(-c3ccco3)nc2n1)C(=O)N1CCN(CC(F)(F)F)CC1 [Example 308, (S)-2-((7-amino-2-(furan-2-yl)-[1,2,4]triazolo[1,5-a][1,3,5]triazin-5-yl)amino)-3-ethoxy-1-(4-(2,2,2-trifluoroethyl)piperazin-1-yl)propan-1-one] | 13 |
| C[C@H](Nc1nc(N)n2nc(-c3ccco3)nc2n1)C(=O)N1CCN(Cc2ccc(F)cc2)CC1 [Example 23, (S)-2-((7-amino-2-(furan-2-yl)-[1,2,4]triazolo[1,5-a][1,3,5]triazin-5-yl)amino)-1-(4-(4-fluorobenzyl)piperazin-1-yl)propan-1-one] | 61 |
| Nc1nc(N[C@H](C(=O)N2CCN(CC(F)(F)F)CC2)C2CC2)nc2nc(-c3ccco3)nn12 [Example 216, (S)-2-((7-amino-2-(furan-2-yl)-[1,2,4]triazolo[1,5-a][1,3,5]triazin-5-yl)amino)-2-cyclopropyl-1-(4-(2,2,2-trifluoroethyl)piperazin-1-yl)ethan-1-one] | 18 |
